Data: PubChem BioAssay (NCI)
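Five concentrations, 48 hours, 96-well plates. GI50 marks 50% less growth. At the TGI there is no net growth.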

Assays:
Experiment in all cases: NCI tumour cell line growth inhibition, 48 h
NCI-H226 lung = test system: NCI-H226 lung
SK-MEL-2 melanoma = test system: SK-MEL-2 melanoma
COLO 205 colon = test system: COLO 205 colon
SR leukemia = test system: SR leukemia
SNB-19 CNS = test system: SNB-19 CNS
HL-60(TB) leukemia = test system: HL-60(TB) leukemia
MDA-MB-435 = test system: MDA-MB-435
OVCAR-4 ovarian = test system: OVCAR-4 ovarian
HS 578T breast = test system: HS 578T breast
UACC-62 melanoma = test system: UACC-62 melanoma
CCRF-CEM leukemia = test system: CCRF-CEM leukemia
MCF7 breast = test system: MCF7 breast
NCI/ADR-RES ovarian = test system: NCI/ADR-RES ovarian
M14 melanoma = test system: M14 melanoma
MOLT-4 leukemia = test system: MOLT-4 leukemia
HOP-62 NSCLC = test system: HOP-62 NSCLC
TK-10 renal = test system: TK-10 renal
HCT-116 colon = test system: HCT-116 colon
UACC-257 melanoma = test system: UACC-257 melanoma
MDA-MB-231 breast = test system: MDA-MB-231 breast
HCC-2998 colon = test system: HCC-2998 colon
786-0 renal = test system: 786-0 renal
PC-3 prostate = test system: PC-3 prostate
IGROV1 ovarian = test system: IGROV1 ovarian
DU-145 prostate = test system: DU-145 prostate
OVCAR-8 ovarian = test system: OVCAR-8 ovarian
ACHN renal = test system: ACHN renal
A549 NSCLC = test system: A549 NSCLC
SN12C renal = test system: SN12C renal
SW-620 colon = test system: SW-620 colon
NCI-H460 lung = test system: NCI-H460 lung
BT-549 breast = test system: BT-549 breast
HCT-15 colon = test system: HCT-15 colon
OVCAR-3 ovarian = test system: OVCAR-3 ovarian
HT29 colon = test system: HT29 colon
K-562 leukemia = test system: K-562 leukemia
CAKI-1 renal = test system: CAKI-1 renal
LOX IMVI melanoma = test system: LOX IMVI melanoma
SF-295 CNS = test system: SF-295 CNS
HOP-92 NSCLC = test system: HOP-92 NSCLC
SNB-75 CNS = test system: SNB-75 CNS
SK-MEL-28 melanoma = test system: SK-MEL-28 melanoma
A498 renal = test system: A498 renal
EKVX NSCLC = test system: EKVX NSCLC
SK-OV-3 ovarian = test system: SK-OV-3 ovarian
OVCAR-5 ovarian = test system: OVCAR-5 ovarian
SF-539 CNS = test system: SF-539 CNS
UO-31 renal = test system: UO-31 renal
KM12 colon = test system: KM12 colon
NCI-H23 lung = test system: NCI-H23 lung
U251 CNS = test system: U251 CNS
SF-268 CNS = test system: SF-268 CNS
RXF 393 renal = test system: RXF 393 renal
SK-MEL-5 melanoma = test system: SK-MEL-5 melanoma
T-47D breast = test system: T-47D breast

COc1ccc(C(=O)NCCNc2nccc(-c3c(-c4ccc(F)cc4)nc4sccn34)n2)cc1
GI50 (NCI-H226 lung): 6 µM | TGI (NCI-H226 lung): 69.1 µM | GI50 (SK-MEL-2 melanoma): 6.23 µM | TGI (SK-MEL-2 melanoma): 30.4 µM | GI50 (COLO 205 colon): 3.01 µM | TGI (COLO 205 colon): 22.8 µM | GI50 (SR leukemia): 5.93 µM | TGI (SR leukemia): 49.1 µM | GI50 (SNB-19 CNS): 10.3 µM | TGI (SNB-19 CNS): > 100 µM | GI50 (HL-60(TB) leukemia): 13.6 µM | TGI (HL-60(TB) leukemia): 47.8 µM | GI50 (MDA-MB-435): 3.1 µM | TGI (MDA-MB-435): 22.7 µM | GI50 (OVCAR-4 ovarian): 10.5 µM | TGI (OVCAR-4 ovarian): 84 µM | GI50 (HS 578T breast): 6.12 µM | TGI (HS 578T breast): 72.3 µM | GI50 (UACC-62 melanoma): 4.03 µM | TGI (UACC-62 melanoma): 28.4 µM | GI50 (CCRF-CEM leukemia): 4.75 µM | TGI (CCRF-CEM leukemia): > 100 µM | GI50 (MCF7 breast): 2 µM | TGI (MCF7 breast): 36.2 µM | GI50 (NCI/ADR-RES ovarian): 7.62 µM | TGI (NCI/ADR-RES ovarian): > 100 µM | GI50 (M14 melanoma): 6.45 µM | TGI (M14 melanoma): 30.9 µM | GI50 (MOLT-4 leukemia): 6.97 µM | TGI (MOLT-4 leukemia): 57.8 µM | GI50 (HOP-62 NSCLC): 12.8 µM | TGI (HOP-62 NSCLC): > 100 µM | GI50 (TK-10 renal): 16.1 µM | TGI (TK-10 renal): > 100 µM | GI50 (HCT-116 colon): 3.95 µM | TGI (HCT-116 colon): 19.8 µM | GI50 (UACC-257 melanoma): 13.9 µM | TGI (UACC-257 melanoma): 68.8 µM | GI50 (MDA-MB-231 breast): 24.8 µM | TGI (MDA-MB-231 breast): > 100 µM | GI50 (HCC-2998 colon): 9.72 µM | TGI (HCC-2998 colon): > 100 µM | GI50 (786-0 renal): 8.04 µM | TGI (786-0 renal): > 100 µM | GI50 (PC-3 prostate): 10.9 µM | TGI (PC-3 prostate): > 100 µM | GI50 (IGROV1 ovarian): 2.53 µM | TGI (IGROV1 ovarian): 15.5 µM | GI50 (DU-145 prostate): 1.04 µM | TGI (DU-145 prostate): 18.9 µM | GI50 (OVCAR-8 ovarian): 5.07 µM | TGI (OVCAR-8 ovarian): > 100 µM | GI50 (ACHN renal): 2.67 µM | TGI (ACHN renal): > 100 µM | GI50 (A549 NSCLC): 3.89 µM | TGI (A549 NSCLC): > 100 µM | GI50 (SN12C renal): 7.8 µM | TGI (SN12C renal): > 100 µM | GI50 (SW-620 colon): 7.22 µM | TGI (SW-620 colon): > 100 µM | GI50 (NCI-H460 lung): 3.55 µM | TGI (NCI-H460 lung): > 100 µM | GI50 (BT-549 breast): 7.95 µM | TGI (BT-549 breast): 31.2 µM | GI50 (HCT-15 colon): 4.09 µM | TGI (HCT-15 colon): > 100 µM | GI50 (OVCAR-3 ovarian): 1.24 µM | TGI (OVCAR-3 ovarian): 19.9 µM | GI50 (HT29 colon): 2.5 µM | TGI (HT29 colon): > 100 µM | GI50 (K-562 leukemia): 4.81 µM | TGI (K-562 leukemia): > 100 µM | GI50 (CAKI-1 renal): 2.27 µM | TGI (CAKI-1 renal): 24.5 µM | GI50 (LOX IMVI melanoma): 4.67 µM | TGI (LOX IMVI melanoma): > 100 µM | GI50 (SF-295 CNS): 2.73 µM | TGI (SF-295 CNS): 15.1 µM | GI50 (HOP-92 NSCLC): 13.4 µM | TGI (HOP-92 NSCLC): > 100 µM | GI50 (SNB-75 CNS): 2.97 µM | TGI (SNB-75 CNS): 37.2 µM | GI50 (SK-MEL-28 melanoma): 12.8 µM | TGI (SK-MEL-28 melanoma): > 100 µM | GI50 (A498 renal): 2.07 µM | TGI (A498 renal): 55 µM | GI50 (EKVX NSCLC): 5.03 µM | TGI (EKVX NSCLC): 73.9 µM | GI50 (SK-OV-3 ovarian): 13.7 µM | TGI (SK-OV-3 ovarian): > 100 µM | GI50 (OVCAR-5 ovarian): 39 µM | TGI (OVCAR-5 ovarian): > 100 µM | GI50 (SF-539 CNS): 16.3 µM | TGI (SF-539 CNS): > 100 µM | GI50 (UO-31 renal): 1.42 µM | TGI (UO-31 renal): 16.5 µM | GI50 (KM12 colon): 2.99 µM | TGI (KM12 colon): 22.4 µM | GI50 (NCI-H23 lung): 8.95 µM | TGI (NCI-H23 lung): > 100 µM | GI50 (U251 CNS): 4.47 µM | TGI (U251 CNS): > 100 µM | GI50 (SF-268 CNS): 2.61 µM | TGI (SF-268 CNS): 33.5 µM | GI50 (RXF 393 renal): 4.05 µM | TGI (RXF 393 renal): 39.4 µM | GI50 (SK-MEL-5 melanoma): 3.01 µM | TGI (SK-MEL-5 melanoma): 15.7 µM | GI50 (T-47D breast): 5.78 µM | TGI (T-47D breast): 34 µM
